Converted amounts (≈) assume the structure as drawn.
What was measured:
Staphylococcus aureus = test: Antibacterial activity against Staphylococcus aureus by twofold dilution method; type: functional
Aspergillus niger = test: Antifungal activity against Aspergillus niger by twofold dilution method; type: functional
Candida = test: Antifungal activity against Candida 51 by twofold dilution method; type: functional
Candida albicans = test: Antifungal activity against Candida albicans by twofold dilution method; type: functional
Aspergillus flavus = test: Antifungal activity against Aspergillus flavus by twofold dilution method; type: functional
Rhizopus = test: Antifungal activity against Rhizopus sp. by twofold dilution method; type: functional
Pseudomonas aeruginosa = test: Antibacterial activity against Pseudomonas aeruginosa by twofold dilution method; type: functional
Cryptococcus neoformans = test: Antifungal activity against Cryptococcus neoformans by twofold dilution method; type: functional
[1] = tested on: Salmonella enterica subsp. enterica; test: Antibacterial activity against Salmonella typhi by twofold dilution method; type: functional, Salmonella enterica subsp. enterica serovar Typhi
Escherichia coli = test: Antibacterial activity against Escherichia coli by twofold dilution method; type: functional
[2] = Staphylococcus aureus, read-out: MIC
[3] = Aspergillus niger, read-out: MIC
[4] = Candida albicans, read-out: MIC
[5] = Aspergillus flavus, read-out: MIC
[6] = Pseudomonas aeruginosa, read-out: MIC
[7] = Cryptococcus neoformans, read-out: MIC
[8] = Salmonella enterica, read-out: MIC
[9] = Escherichia coli, read-out: MIC

| Compound | MIC (Staphylococcus aureus; [2]) [µg/mL] | MIC (Aspergillus niger; [3]) [µg/mL] | MIC (Candida; Candida, 51, read-out: MIC) [µg/mL] | MIC (Candida albicans; [4]) [µg/mL] | MIC (Aspergillus flavus; [5]) [µg/mL] | MIC (Rhizopus; Rhizopus, read-out: MIC) [µg/mL] | MIC (Pseudomonas aeruginosa; [6]) [µg/mL] | MIC (Cryptococcus neoformans; [7]) [µg/mL] | MIC [1, 8] [µg/mL] | MIC (Escherichia coli; [9]) [µg/mL] | MIC (Staphylococcus aureus) [µg/mL] | MIC (Aspergillus niger) [µg/mL] | MIC (Candida) [µg/mL] | MIC (Candida albicans) [µg/mL] | MIC (Aspergillus flavus) [µg/mL] | MIC (Rhizopus) [µg/mL] | MIC (Pseudomonas aeruginosa) [µg/mL] | MIC (Cryptococcus neoformans) [µg/mL] | MIC [1] [µg/mL] | MIC (Escherichia coli) [µg/mL] |
| --- | --- | --- | --- | --- | --- | --- | --- | --- | --- | --- | --- | --- | --- | --- | --- | --- | --- | --- | --- | --- |
| CCOC(=O)C1/C(=N/OCc2ccccc2)CC(c2ccccc2)NC1c1ccccc1 (stereo not drawn) | 200 (≈ 467 µM) | 200 (≈ 467 µM) | 100 (≈ 233 µM) | 50 (≈ 117 µM) | 100 (≈ 233 µM) | 200 (≈ 467 µM) | 50 (≈ 117 µM) | 100 (≈ 233 µM) | 200 (≈ 467 µM) | 100 (≈ 233 µM) |  |  |  |  |  |  |  |  |  |  |
| CCC1/C(=N\OCc2ccccc2)CC(c2ccccc2)OC1c1ccccc1 (stereo not drawn) | 200 (≈ 519 µM) | 200 (≈ 519 µM) | 100 (≈ 259 µM) | 100 (≈ 259 µM) | 100 (≈ 259 µM) | 100 (≈ 259 µM) | 100 (≈ 259 µM) | 50 (≈ 130 µM) | 100 (≈ 259 µM) | 50 (≈ 130 µM) |  |  |  |  |  |  |  |  |  |  |
| COc1ccc(C2NC(c3ccc(OC)cc3)C(C)C(=NOCc3ccccc3)C2C)cc1 (stereo not drawn) | 25 (≈ 56.2 µM) | 25 (≈ 56.2 µM) | 6.25 (≈ 14.1 µM) | 12.5 (≈ 28.1 µM) | 100 (≈ 225 µM) | 25 (≈ 56.2 µM) | 50 (≈ 112 µM) | 12.5 (≈ 28.1 µM) | 25 (≈ 56.2 µM) | 25 (≈ 56.2 µM) |  |  |  |  |  |  |  |  |  |  |
| CC1C(=NOCc2ccccc2)C(C)C(c2ccccc2)NC1c1ccccc1 (stereo in doubt; 5f2) |  |  |  |  |  |  |  |  |  |  | 100 (≈ 260 µM) | 100 (≈ 260 µM) | 100 (≈ 260 µM) | 100 (≈ 260 µM) | >200 | 50 (≈ 130 µM) | 200 (≈ 520 µM) | 200 (≈ 520 µM) | 100 (≈ 260 µM) | 100 (≈ 260 µM) |
| CCC1/C(=N/OCc2ccccc2)CC(c2ccccc2)NC1c1ccccc1 (stereo not drawn) | 25 (≈ 65 µM) | 50 (≈ 130 µM) | 100 (≈ 260 µM) | 100 (≈ 260 µM) | > 200 | 50 (≈ 130 µM) | 100 (≈ 260 µM) | 200 (≈ 520 µM) | 50 (≈ 130 µM) | 100 (≈ 260 µM) |  |  |  |  |  |  |  |  |  |  |
| CC1/C(=N/OCc2ccccc2)CC(c2ccccc2)NC1c1ccccc1 (stereo not drawn) | 200 (≈ 540 µM) | 200 (≈ 540 µM) | 200 (≈ 540 µM) | 100 (≈ 270 µM) | 100 (≈ 270 µM) | 200 (≈ 540 µM) | 200 (≈ 540 µM) | > 200 | 100 (≈ 270 µM) | 200 (≈ 540 µM) |  |  |  |  |  |  |  |  |  |  |
| Cc1ccc([C@@H]2CC(=NOCc3ccccc3)C[C@@H](c3ccc(C)cc3)S2)cc1 (relative stereo) | 100 (≈ 249 µM) | 100 (≈ 249 µM) | 200 (≈ 498 µM) | 50 (≈ 125 µM) | 100 (≈ 249 µM) | 50 (≈ 125 µM) | 100 (≈ 249 µM) | 50 (≈ 125 µM) | 100 (≈ 249 µM) | 50 (≈ 125 µM) |  |  |  |  |  |  |  |  |  |  |
| COc1ccc([C@@H]2CC(=NOCc3ccccc3)C[C@@H](c3ccc(OC)cc3)S2)cc1 | 50 (≈ 115 µM) | 25 (≈ 57.7 µM) | 25 (≈ 57.7 µM) | 25 (≈ 57.7 µM) | 25 (≈ 57.7 µM) | 50 (≈ 115 µM) | 25 (≈ 57.7 µM) | 12.5 (≈ 28.8 µM) | 50 (≈ 115 µM) | 50 (≈ 115 µM) |  |  |  |  |  |  |  |  |  |  |
| c1ccc(CON=C2CC(c3ccccc3)NC(c3ccccc3)C2)cc1 (stereo not drawn) | > 200 | > 200 | 200 (≈ 561 µM) | 200 (≈ 561 µM) | 200 (≈ 561 µM) | > 200 | 200 (≈ 561 µM) | > 200 | 100 (≈ 281 µM) | > 200 |  |  |  |  |  |  |  |  |  |  |
| Clc1ccc(C2CC(=NOCc3ccccc3)CC(c3ccc(Cl)cc3)N2)cc1 (stereo not drawn) | 50 (≈ 118 µM) | 50 (≈ 118 µM) | 200 (≈ 470 µM) | 50 (≈ 118 µM) | 200 (≈ 470 µM) | > 200 | 50 (≈ 118 µM) | 100 (≈ 235 µM) | 100 (≈ 235 µM) | 50 (≈ 118 µM) |  |  |  |  |  |  |  |  |  |  |
| O=C(O)c1cn(C2CC2)c2cc(N3CCNCC3)c(F)cc2c1=O [CIPROFLOXACIN] |  |  |  |  |  |  |  |  | 50 (≈ 151 µM) | 25 (≈ 75.4 µM) |  |  |  |  |  |  |  |  |  |  |
| C[C@@H]1[C@H](O)[C@@H](C)/C=C/C=C/C=C/C=C/C=C/C=C/C=C/[C@H](O[C@@H]2O[C@H](C)[C@@H](O)[C@H](N)[C@@H]2O)C[C@@H]2O[C@](O)(C[C@@H](O)C[C@@H](O)[C@H](O)CC[C@@H](O)C[C@@H](O)CC(=O)O[C@H]1C)C[C@H](O)[C@H]2C(=O)O [AMPHOTERICIN B] |  | 50 (≈ 54.1 µM) | 25 (≈ 27.1 µM) | 25 (≈ 27.1 µM) | 50 (≈ 54.1 µM) | 25 (≈ 27.1 µM) |  | 25 (≈ 27.1 µM) |  |  |  |  |  |  |  |  |  |  |  |  |
| CC(C)C1/C(=N/OCc2ccccc2)CC(c2ccccc2)NC1c1ccccc1 (stereo not drawn) | > 200 | 200 (≈ 502 µM) | 200 (≈ 502 µM) | 50 (≈ 125 µM) | 200 (≈ 502 µM) | 50 (≈ 125 µM) | 200 (≈ 502 µM) | 100 (≈ 251 µM) | 100 (≈ 251 µM) | 100 (≈ 251 µM) |  |  |  |  |  |  |  |  |  |  |
| COc1ccc(C2OC(c3ccc(OC)cc3)C(C)C(=NOCc3ccccc3)C2C)cc1 (stereo not drawn) | 50 (≈ 112 µM) | 50 (≈ 112 µM) | 12.5 (≈ 28.1 µM) | 50 (≈ 112 µM) | 100 (≈ 224 µM) | 25 (≈ 56.1 µM) | 25 (≈ 56.1 µM) | 6.25 (≈ 14 µM) | 50 (≈ 112 µM) | 25 (≈ 56.1 µM) |  |  |  |  |  |  |  |  |  |  |

— ChEMBL document CHEMBL1158420, “Synthesis, spectral, crystal and antimicrobial studies of biologically potent oxime ethers of nitrogen, oxygen and sulfur heterocycles” (2009)
